# Measurements: patent US11504371B2, “Quinazolines compound, preparation method therefor and application thereof” (Beijing Normal University, priority 2017, dated 2022)
# “And” between values parts separate entries of the source, which are not always exact repeats. Equal values may be shown once. “Also recorded” adds a separate entry of the source. Marks after values point to notes of the source that are not given here.
# Key:
# [1] = test system: human breast cancer cell line (MCF-7); assay: MTT assay, tumor cell proliferation inhibition, MCF-7; type: cell-based; settings: Homo sapiens, MCF7; MCF-7, MTT, 72 h; read-out: Tumor inhibition rate (IC50)
# [2] = test system: human prostate cancer cell line (DU145); assay: MTT assay, tumor cell proliferation inhibition, DU145; type: cell-based; settings: Homo sapiens, DU-145; DU145, MTT, 72 h; read-out: Tumor inhibition rate (IC50)
# [3] = test system: human hepatoma cell line (HepG2); assay: MTT assay, tumor cell proliferation inhibition, HepG2; type: cell-based; settings: Homo sapiens, 72 h, read-out: Tumor inhibition rate (IC50)
# [4] = test system: cell membrane; assay: Cell membrane permeability test (Hoechst 33342 fluorescence); type: cell-based; settings: Hoechst 33342 fluorescence observation
# Excerpt: One of the anilino polyethylene glycol ether cycloquinazoline substituted with a substituted arylmethyl heteroatomic group of formula (I), N-(4-((4-nitrophenyl)methoxy)phenyl)-6,7-(benzo-9-crown-3)-4-quinazolinamine, is studied by cell membrane permeability test. […] As the concentration of the target compound increases, the permeability is improved and the cells undergo apoptosis.
# [5] = test system: human neuroblastoma cell line (SH-SY5Y); assay: MTT assay, tumor cell proliferation inhibition, SH-SY5Y; type: cell-based; settings: Homo sapiens, SH-SY5Y, 72 h, read-out: Tumor inhibition rate (IC50)
# [6] = test system: A549 cancer cells; assay: Nude mice bearing A549 cancer cells; type: in vivo
# Description: In the present invention, the antitumor activity was evaluated by intraperitoneal injection to nude mice bearing different tumors, for compounds 3 (N-(4-((4-nitrophenyl)methoxy)phenyl)-6,7-(benzo-9-crown-3)-4-quinazolinamine) and 23 (compounds No. are shown in Table 1) (N-(3-((4-trifluoromethylphenyl)methoxy)phenyl)-6,7-(benzo-12-crown-4)-4-quinazolinamine) of formula (I).
# Firstly, a tumor-bearing nude mouse model was established. 0.2-1 mL of cell suspension was inoculated subcutaneously into the left lower limb of nude mice, and the drug was administered when the tumor volume reached about 100 mm^3. Then, grouping and administration were performed; the nude mice (5 mice in each group) were randomly divided into several groups, such as ultra-pure water control group (blank), positive drug control group, and different dosage treatment groups. The nude mice in each group were administered continuously for 40 days. The nude mice were weighted every other day during the administration. Tumor volumes were measured and calculated. Then tumor growth curve, tumor inhibition curve (see FIGS. 1 and 3) and weight change curve (see FIGS. 2 and 4) were drawn. […]. Among those, docetaxel suffers from high cumulative neurotoxic toxicity and drug resistance although it has the best effect. Comparing to docetaxel, compound 23 has a much lower toxicity and drug resistance, and thus has a great development prospect. […]
# [7] = test system: cells A549; assay: Intracellular reactive oxygen species (fluorescence spectrometer); type: cell-based, human; settings: A549 after treatment
# Excerpt: A part of the compound of anilino polyethylene glycol ether cycloquinazoline substituted with a substituted arylmethyl heteroatomic group represented by formula (I) are studied by detecting cell mitochondrial membrane potential and intracellular reactive oxygen species.
# [8] = test system: human lung cancer cell line (A549); assay: MTT assay, tumor cell proliferation inhibition, A549; type: cell-based
# [9] = test system: A549 cells; assay: Cell cycle experiment (PI staining, flow cytometer); type: cell-based, human; settings: for Cell proportion, G0/G1 / Cell proportion, G2/M / Cell proportion, S: 48 h
# Description: Experiment procedure: A549 cells in logarithmic growth phase (purchased from the Cancer Hospital of Chinese Academy of Medical Sciences) were seeded into 6-well cell culture plates, adjusted to 5×10^5 cells per well, and cultured in an incubator at 37° C., 5% CO2, and saturated humidity for 24 h. The used medium was discarded. The cells were treated with the target compounds in different concentrations for 48 h, and grouped to an administration group and a control group (non-administered). The cells were digested with 0.25% trypsin to form a single cell suspension, centrifuged at 1500 r/min for 5 min. The supernatant was discarded, and the cells were collected. The cells were washed twice with precooled PBS buffer, centrifuged at 1500 r/min for 5 min, added to 5 mL of precooled 70% ethanol, and placed at 4° C. for at least 24 h. After centrifugation, the supernatant was discarded, and the cells were washed twice with PBS and collected by centrifugation. The cells were suspended in 400 μL PBS, added with 30 μL of RNaseA (purchased from Corning Inc., USA) at the concentrations from 1 mg/mL to 50 μg/mL, and incubated at 37° C. for 30 min. The centrifuge tube was then inserted into an ice bath to stop digestion. After the tube was cooled, 50 μL of PI staining solution (500 μg/mL) (purchased from Corning Inc., USA) was added to a final concentration of 50 μg/mL. The tube was immersed in an ice bath to perform straining in the dark for 30 min-40 min, filtered through a 300 mesh nylon mesh, and tested by flow cytometer (FACS Vantage SE: BD, USA).
smiles,measurement,setting,value
"O=[N+]([O-])c1ccc(COc2ccc(Nc3ncnc4cc5c(cc34)OCCOCCO5)cc2)cc1 [Compound 3, N-(4-((4-nitrophenyl)methoxy)phenyl)-6,7-(benzo-9-crown-3)-4-quinazolinamine]",IC50,[1],39.7 µM
same,IC50,[2],> 100 µM
same,IC50,[3],> 100 µM
same,effect on cell membrane permeability,[4],can increase the permeability of the cell membrane
same,IC50,[5],55.2 µM
same,tumor inhibition,"[6]; 60 mg/Kg, FIG. 1",significant inhibited
same,body weight,"[6]; 60 mg/Kg, FIG. 2",not decreased significantly
same,"tumor inhibitory effect (tumor volume, FIG. 1)","[6]; nude mice bearing A549, intraperitoneal injection",remarkable tumor inhibitory effect; also recorded: high inhibitory effect
same,inhibitory activity against A549 compared with gefitinib,"[6]; same dose 45 mg/Kg, FIG. 1",significantly higher
same,intracellular reactive oxygen species (ROS),[7],increased intracellular reactive oxygen species (ROS) and apoptosis
same,IC50,"[8]; Homo sapiens, A549, MTT, 72 h, read-out: Tumor inhibition rate (IC50)",6.62 µM
same,inhibitory activity on A549 (in words),"[8]; MTT, summary of Table 1",strong specific inhibitory activity
same,cell cycle block (in words),"[9]; A549, 0-40 μM",can block A549 in G0/G1 phase
same,"Cell proportion, G0/G1","[9]; A549, 5 μM",84.51 ± 0.32 ^a %
same,"Cell proportion, G2/M","[9]; A549, 5 μM",3.06 ± 0.12 ^ %
same,"Cell proportion, S","[9]; A549, 5 μM",12.42 ± 0.10%
same,"Cell proportion, G0/G1","[9]; A549, 10 μM",85.58 ± 0.44 ^a %
same,"Cell proportion, G2/M","[9]; A549, 10 μM",3.05 ± 0.19 ^ %
same,"Cell proportion, S","[9]; A549, 10 μM",11.39 ± 0.64%
same,"Cell proportion, G0/G1","[9]; A549, 20 μM",87.23 ± 0.31 ^a %
same,"Cell proportion, G2/M","[9]; A549, 20 μM",1.41 ± 0.05 ^a %
same,"Cell proportion, S","[9]; A549, 20 μM",11.68 ± 0.26%
same,"Cell proportion, G0/G1","[9]; A549, 40 μM",90.08% and 90.08 ± 0.62 ^a %
same,"Cell proportion, G2/M","[9]; A549, 40 μM",2.04 ± 0.14 ^a %
same,"Cell proportion, S","[9]; A549, 40 μM",7.90 ± 0.50 ^a %
